Measurements published in patent publication US5366726A (priority 1992, dated 1994).

Experiments:
[1] = tested on: Pneumocystis carinii; test: Example 5: prevention of P. carinii pneumonia, 300 mg once per month; assay type: in vivo, human; conditions: single prior episode; vs 10 based on 132 historical controls, p<0.01
From the text: Within 30 days of initiation of prophylaxis, ten patients were omitted due to treatment (9) or relapse (1). Of the 93 patients, 48 had had at least one previous episode of PCP. Two-thirds of the patients were taking AZT at the onset and throughout the duration of the post-exposure prophylaxis. The median and maximum duration of treatment at the time of analysis was 3.1 and 5.2 months.

[2] = tested on: Pneumocystis carinii; test: Example 8: randomized clinical trial, prevention of PCP; assay type: in vivo, human
[3] = Example 8: adverse effects in the clinical trial; assay type: in vivo, human
From the text: Participants were enrolled in one of 13 treatment centers located in the San Francisco Bay area.
Each treatment was supervised by a respiratory therapist who noted any immediate adverse effects and administered a bronchodilator if needed for severe coughing or bronchospasm.
Participants were questioned at baseline and at each visit about concomitant medications, intercurrent illnesses, and symptoms. Information from participants, their physicians, hospital records, microbiology departments, and county health departments were used to determine status.

[4] = tested on: Pneumocystis carinii; conditions: standard therapy, intravenous pentamidine or TMP-SMX
From the text: Adult patients having or suspected of having AIDS, and who were hospitalized for a fiberoptic bronchoscopy to evaluate diffuse infiltrates on chest radiographs, were studied. The patients were divided into two groups.

[5] = inhaled, animals; cited from earlier work
[6] = all strata, eligible, PCP within 60 days, 30 mg
[7] = all strata, eligible, confirmed PCP within 60 days, 30 mg
[8] = prior PCP strata, eligible, PCP within 60 days, 30 mg
[9] = prior PCP strata, eligible, PCP within 60 days, 150 mg
[10] = prior PCP strata, eligible, PCP within 60 days, 300 mg
[11] = prior PCP strata, eligible, confirmed PCP within 60 days, 30 mg
[12] = prior PCP strata, eligible, confirmed PCP within 60 days, 150 mg
[13] = prior PCP strata, eligible, confirmed PCP within 60 days, 300 mg

N=C(N)c1ccc(OCCCCCOc2ccc(C(=N)N)cc2)cc1 [pentamidine, p,p'-(pentamethylenedioxy)dibenzamidine]
number of observed cases [1]: 3 cases
effectiveness vs 300 mg ([2]; 150 mg arm, compared with 30 mg arm, not statistically significant vs 300 mg): consistently less effective than 300 mg
time to PCP occurrence, Kaplan-Meier ([2]; 150 mg vs 30 mg): superior to the 30 mg arm but less so than the 300 mg arm
PCP episodes vs other arms ([2]; 300 mg arm): fewest PCP episodes
time to PCP occurrence, Kaplan-Meier ([2]; 300 mg every 4 weeks vs 30 mg every 2 weeks): consistently superior
hazard of PCP, Cox model ([2]; 300 mg group): significantly lower hazard of PCP
PCP episodes documented during study ([2]; all arms): One hundred-one
PCP events not histologically confirmed ([2]; all arms): Twenty-five
completed the study without reaching a study endpoint ([2]; all arms): 26%
deaths due to PCP ([2]; all arms): Nineteen
p, log rank 30 mg vs. 300 mg ([2]; all strata, eligible, PCP within 60 days): .004
No PCP [2, 6]: 89
PCP [2, 6]: 28
PCP ([2]; all strata, eligible, PCP within 60 days, 150 mg): 18
PCP ([2]; all strata, eligible, PCP within 60 days, 300 mg): 16
p, log rank 30 mg vs. 300 mg ([2]; all strata, eligible, confirmed PCP within 60 days): .0008
No PCP [2, 7]: 95
PCP [2, 7]: 22
PCP ([2]; all strata, eligible, confirmed PCP within 60 days, 150 mg): 16
PCP ([2]; all strata, eligible, confirmed PCP within 60 days, 300 mg): 8
p, log rank 30 mg vs. 300 mg ([2]; all strata, intention to treat): .02
PCP ([2]; all strata, intention to treat, all PCP, 30 mg): 41
PCP ([2]; all strata, intention to treat, all PCP, 150 mg): 32
PCP ([2]; all strata, intention to treat, all PCP, 300 mg): 28
No PCP ([2]; all strata, intention to treat, 30 mg): 94
Cox relative hazard of 30 mg, on study drugs events ([2]; for 150 mg): 1.7
Cox relative hazard of 30 mg, on study drugs events ([2]; for 300 mg): 3.9
all cause mortality between three treatment arms ([2]; human, in vivo): did not significantly differ
participants who developed PCP ([2]; initial CD4 counts greater than 200, no prior PCP): 5.1%
participants who developed PCP ([2]; initial CD4 counts less than 200, no prior PCP): 13%
p, log rank 30 mg vs. 300 mg ([2]; prior PCP strata, eligible, PCP within 60 days): .006
No PCP [2, 8]: 42
PCP [2, 8]: 25
No PCP [2, 9]: 51
PCP [2, 9]: 16
No PCP [2, 10]: 60
PCP [2, 10]: 14
p, log rank 30 mg vs. 300 mg ([2]; prior PCP strata, eligible, confirmed PCP within 60 days): .002
No PCP [2, 11]: 47
PCP [2, 11]: 20
No PCP [2, 12]: 53
PCP [2, 12]: 14
No PCP [2, 13]: 66
PCP [2, 13]: 8
p, log rank 30 mg vs. 300 mg ([2]; prior PCP strata, intention to treat): .02
PCP ([2]; prior PCP strata, intention to treat, all PCP, 30 mg): 33
PCP ([2]; prior PCP strata, intention to treat, all PCP, 150 mg): 24
PCP ([2]; prior PCP strata, intention to treat, all PCP, 300 mg): 21
No PCP ([2]; prior PCP strata, intention to treat, 30 mg): 46
No PCP ([2]; prior PCP strata, intention to treat, 150 mg): 54
No PCP ([2]; prior PCP strata, intention to treat, 300 mg): 59
PCP episodes ([2]; prior PCP stratum, all arms): Seventy-eight
median time to PCP relapse ([2]; prophylaxis started within 3 months of prior episode): 240 days
hazard of PCP ([2]; therapy started within 3 months vs later): less than half the hazard of PCP
Pneumothorax, Known etiology ([3]; 30 mg): 5
Pneumothorax, Spontaneous ([3]; 30 mg): 2
Significant Cough ([3]; 30 mg): 31%
Treatments stopped due to cough ([3]; 30 mg): 0%
Used Bronchodilators ([3]; 30 mg): 7.5%
Withdrew, Adverse Effects ([3]; 30 mg): 2
Pneumothorax, Known etiology ([3]; 150 mg): 5
Pneumothorax, Spontaneous ([3]; 150 mg): 3
Significant Cough ([3]; 150 mg): 40%
Treatments stopped due to cough ([3]; 150 mg): 0.2%
Used Bronchodilators ([3]; 150 mg): 14%
Withdrew, Adverse Effects ([3]; 150 mg): 11
Pneumothorax, Known etiology ([3]; 300 mg): 3
Pneumothorax, Spontaneous ([3]; 300 mg): 3
Significant Cough ([3]; 300 mg): 38%
Treatments stopped due to cough ([3]; 300 mg): 0.7%
Used Bronchodilators ([3]; 300 mg): 20%
Withdrew, Adverse Effects ([3]; 300 mg): 10
significant coughing during a treatment ([3]; all participants): 36%
wheezing during a treatment ([3]; all participants): 11%
participants who used bronchodilators during treatment ([3]; human, in vivo): Fourteen
rash, participants ([3]; human, in vivo): One
spontaneous pneumothorax ([3]; human, in vivo): Eight
stopped due to interstitial pneumonitis, participants ([3]; human, in vivo): One
treatments ended by cough ([3]; human, in vivo): 0.3%
treatments interrupted by cough ([3]; human, in vivo): 0.5%
withdrew after pneumothoraces, participants ([3]; human, in vivo): four
response of all patients infected with P. carinii [4]: responded to standard therapy
microscopic airway changes [5]: no microscopic airway changes
